Test results published in patent publication US10253041B2, “7-phenylethylamino-4H-pyrimido[4,5-d][1,3]oxazin-2-one compounds and their use as mutant IDH1 inhibitors” (Eli Lilly and Company, priority 2015, dated 2019).
Structures can show the parent of a compound that is named as a salt. Where two headings read alike, the source gives them in different places.

Assays:
[1] = biological target: T1, IDH1/R132H (Homo sapiens, UniProt O75874, R132H); assay: Biochemical assay for IDH1 R132H mutant enzyme (2HG by RapidFire MS); settings: mean ± standard deviation of the mean; 90 minutes reaction
T1 construct: His-tag (N); made in house; host or cells: E. coli
Method: (§1) IDH1-R132H, IDH1-R132C, IDH2-R172K and IDH2-R140Q mutant enzymes catalyze the conversion of αKG to 2HG. 2HG is analyzed using in-line solid phase extraction and mass spectrometry. This analysis is carried out in a RapidFire® instrument coupled to a 6460 triple quadrupole mass spectrometer (G6460A Agilent).
(§2) IDH1 mutant (R132H and R132C) and IDH2 mutant (R140Q and R172K) proteins containing N-terminal His-tag are expressed in E. coli and purified using nickel affinity chromatography. The enzyme assays are carried out in V-bottom 96 well polypropylene plates containing 100 mM Tris-HCl buffer, 1 mM DTT, 0.005% TRITON™ X-100, 120 mM NaCl. For IDH1 R132H, α-ketoglutarate, NADPH and MnCl2 are included at final concentrations of 300 μM, 2.5 μM and 300 μM respectively. For IDH1 R132C, α-ketoglutarate, NADPH and MnCl2 are included at final concentrations of 100 μM, 10 μM and 100 μM respectively. For IDH2 R172K, α-ketoglutarate, NADPH and MnCl2 are included at final concentrations of 150 μM, 10 μM and 150 μM respectively. For IDH2 R140Q, α-ketoglutarate, NADPH and MnCl2 are included at final concentrations of 3000 μM, 10 μM and 100 μM respectively. Final pH=7.0. Test compound dissolved in DMSO stock is diluted in the reaction mix at a final DMSO concentration of 4%. Compounds are tested in dose-response format. The assay is started by addition of enzyme. Enzymes are used at the following final concentrations: IDH1 R132H, 2 nM; IDH1 R132C, 0.5 nM; IDH2 R172K, 1.2 nM; IDH2 R140Q, 1.2 nM. After 90 minutes the reaction is quenched by adding ACN (50:50) containing 3-hydroxy-1,5-pentanedioic-2,2,3,4,4-d5 acid (5d5-3HG) as an internal standard for mass spectrometry analysis and quantitation of reaction product. 2-Hydroxyglutarate (2HG) in quenched samples is separated using strong anionic exchange column chromatography (Phenomenex Strata-X-A SecurityGuard) and analyzed by mass spectrometry in a 6460 triple quadrupole mass spectrometer (G6460A Agilent). The 2HG signal detected is transformed into an analyte concentration using a calibration curve generated using known 2HG concentrations. […] IC50 values are obtained from the individual % inhibition values at different compound concentrations using a 4-parameter equation. These calculations are carried out using Activity Base (IDBS) or Screener (Genedata) data analysis programs.

[2] = biological target: T2, IDH1/R132C (Homo sapiens, UniProt O75874, R132C); assay: Biochemical assay for IDH1 R132C mutant enzyme (2HG by RapidFire MS); settings: mean ± standard deviation of the mean; 90 minutes reaction
T2 construct: His-tag (N); made in house; host or cells: E. coli
Method: as §1, §2

[3] = system: IDH1 mutant R132C in fibrosarcoma cell line HT1080; assay: HT1080 cell assay (intracellular 2HG and αKG); type: cell-based; settings: Homo sapiens, 1 hour + 18 hours incubation
Method: (§3) To test the cellular inhibition of IDH1 mutant R132C, the fibrosarcoma cell line HT1080 (purchased from ATCC) is used. For testing cell-based inhibition of the R132H mutation, the U87MG glioma cell line (ATCC) was stably transfected with a DNA construct expressing the R132H mutant enzyme.
Fifteen thousand cells are plated in poly-D-lys coated 96 well plates (15,000 cells/well) 18-24 hours prior to treatment with compounds. Four hours prior to compound treatment, cells are glutamine-starved by removing normal media and replacing with glutamine-free media. Following starvation, cells are then treated with different concentrations of test compounds (20 μM to 1 nM) dissolved in glutamine free media containing DMSO at a final concentration of 0.2%. The initial compound incubation is for 1 hour at 37° C./5% CO2. After 1 hour, glutamine is added to a final 2 mM concentration and the treated cells are then incubated for a further 18 hours at 37° C./5% CO2. Following the 18 hour incubation, intracellular 2HG and αKG are analyzed in cell lysates. Lysates are prepared following removal of media and addition of buffer containing 25 mM Tris-HCl pH 7.5, 150 mM NaCl, 1 mM EDTA, 1 mM EGTA/1% Triton-X 100 to the cells. An aliquot of lysate is added to a mix of d6-αKG and d5-3HG as internal standards and the mixture is treated with O-benzylhydroxylamine in the presence of N-(3-dimethylaminopropyl)-N′-ethylcarbodiimide hydrochloride (EDC) and pyridine. Analyte derivatives are then extracted with EtOAc, dried, and then reconstituted with 50% MeOH in H2O. Samples prepared as described are injected into the HPLC to separate 2HG and αKG derivatives (and corresponding internal standards) using a reverse phase chromatography in a C18 column. Analysis of the samples is carried out using a 6460 triple quadrupole mass spectrometer (G6460A Agilent). The 2HG and αKG signals detected are transformed into analyte concentration using the ratio of αKG/d6-αKG and the ratio of 2HG/d5-3HG that is extrapolated within a calibration curve. Percent inhibition for each individual sample is obtained after normalizing calculated 2HG or aKG concentration to maximum and minimum references obtained in the presence and in the absence of glutamine during cell treatment with compounds. IC50 values are obtained from individual % inhibition using a sigmoidal dose-response 4-parameter equation. These calculations are carried out automatically using Activity Base (IDBS) or Screener (Genedata) data analysis programs.

[4] = system: IDH1/R132H in U87MG glioma cells; assay: U87MG/IDH1R132H cell assay (intracellular 2HG); type: cell-based; settings: Homo sapiens, U-87 MG, 19 h, 1 hour + 18 hours incubation, read-out: U87MG (IDH1/R132H 2-hydroxyglutarate IC50)
Method: as §3
Cells are plated in poly-D-lys coated 96 well plates (12,000 cells/well) 18-24 hours previous to treatment with compounds. Four hours prior to compound treatment, cells are glutamine-starved by removing normal media and replacing with glutamine-free media. Following starvation, cells are then treated with different concentrations of test compounds (20 μM to 1 nM) dissolved in glutamine free media containing DMSO at a final concentration of 0.2%. The initial compound incubation is for 1 hour at 37° C./5% CO2. After 1 hour, glutamine is added to a final 2 mM concentration and the treated cells are then incubated for a further 18 hours at 37° C./5% CO2. Intracellular 2HG is analyzed in cell lysates obtained after media removal and treatment with lysis buffer (25 mM Tris-HCl pH 7.5, 150 mM NaCl, 1 mM EDTA, 1 mM EGTA/1% Triton-X 100). Cell lysates are conserved at −80° C. until processing. For analyte extraction, an aliquot of thawed lysate is transferred to a deep 96-well plate and treated with cold MeOH containing d5-3HG as an internal standard followed by chloroform and H2O (1:4:3:2). The upper phase is collected after separation and injected in HPLC to separate 2HG (and internal standard) using hydrophilic interaction (HILIC) chromatography coupled to MS/MS detection in a 6460 triple quadrupole mass spectrometer. Percent inhibition for each individual sample is obtained after normalizing calculated 2HG concentration to maximum and minimum references obtained in the presence and in the absence of glutamine during cell treatment with compounds. IC50 values are obtained from individual % inhibition using a sigmoidal dose-response 4-parameter equation. These calculations are carried out automatically using Activity Base (IDBS) or Screener (Genedata) data analysis programs.

[5] = HT-1080, 19 h, intracellular 2HG, read-out: HT1080 (R132C, 2-hydroxyglutarate) IC50
[6] = HT-1080, intracellular αKG, read-out: HT1080 (R132C, αKG) IC50

T2 sequence (O75874 whole entry R132C): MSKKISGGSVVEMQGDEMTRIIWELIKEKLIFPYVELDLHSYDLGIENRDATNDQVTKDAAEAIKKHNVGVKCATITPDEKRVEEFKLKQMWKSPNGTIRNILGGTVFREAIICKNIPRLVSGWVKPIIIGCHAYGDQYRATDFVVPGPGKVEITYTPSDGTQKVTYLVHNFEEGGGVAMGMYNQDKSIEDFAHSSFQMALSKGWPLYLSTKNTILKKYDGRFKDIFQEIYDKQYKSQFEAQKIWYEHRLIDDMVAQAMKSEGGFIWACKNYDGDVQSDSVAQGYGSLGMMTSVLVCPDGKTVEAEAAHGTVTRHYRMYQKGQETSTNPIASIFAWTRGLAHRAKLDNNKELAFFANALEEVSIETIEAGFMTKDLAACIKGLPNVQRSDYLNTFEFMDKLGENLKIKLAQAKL
T1 sequence (O75874 whole entry R132H): as the sequence (O75874 whole entry R132C) above, with C132H counted along it

SMILES | IC50 [1] [nM] | IC50 [2] [nM] | IC50 [3, 5] [nM] | IC50 [3, 6] [nM] | IC50 [4] [nM]
C=CC(=O)N1CCN(c2ccc([C@H](C)Nc3ncc4c(n3)N(CC)C(=O)OC4)cc2)CC1 [Example 18, 1-Ethyl-7-[[(1S)-1-[4-(4-prop-2-enoylpiperazin-1-yl)phenyl]ethyl]amino]-4H-pyrimido[4,5-d][1,3]oxazin-2-one] | 211 | 192 | 380 ± 130 | > 20000 | 70.7
C=CC(=O)N1CCN(Cc2ccc([C@H](C)Nc3ncc4c(n3)N(CC)C(=O)OC4)cc2)CC1 [Example 23, 1-Ethyl-7-[[(1S)-1-[4-[(4-prop-2-enoylpiperazin-1-yl)methyl]phenyl]ethyl]amino]-4H-pyrimido[4,5-d][1,3]oxazin-2-one 4-hydroxybenzoic acid salt] | 188 ± 48 | 234 ± 67 | 32.1 ± 13.6 | > 20000 | 9.03 ± 0.75
